From patent publication US9573956B2, “Compounds as dual inhibitors of phosphodiesterases and histone deacetylases” (FUNDACIÓN PARA LA INVESTIGACIÓN MÉDICA APLICADA, priority 2013, dated 2017)
Read-outs that look alike come from different tables or passages of the source.

Assays:
Assay type in all cases: biochemical
PDE5A = target: T1, PDE5A (Homo sapiens, UniProt O76074); experiment: PDE enzyme activity assay (HTRF cGMP), PDE5A; conditions: recombinant enzyme; read-out: PDE5A1 inhibition (IC50)
T1 construct: they are full-length with N-terminal GST tag; GST (N); purchased BPS Biosciences 60050; host or cells: baculovirus infected Sf9 cells

HDAC1 = HDAC1 (Homo sapiens, UniProt Q13547); experiment: HDAC enzyme activity assay (fluorogenic substrate), HDAC1
HDAC2 = target: T2, HDAC2 (Homo sapiens, UniProt Q92769); experiment: HDAC enzyme activity assay (fluorogenic substrate), HDAC2
T2 construct: NM_001527; Cat. #50002) is full-length with C-terminal his tag; His (C); purchased BPS Biosciences 50002; host or cells: baculovirus infected Sf9 cells

HDAC6 = target: T3, HDAC6 (Homo sapiens, UniProt Q9UBN7); experiment: HDAC enzyme activity assay (fluorogenic substrate), HDAC6
T3 construct: BC069243; Cat. #50006) is full-length with N-terminal GST tag; GST (N); purchased BPS Biosciences 50006; host or cells: baculovirus infected Sf9 cells
T3 sequence (Q9UBN7 1-1215): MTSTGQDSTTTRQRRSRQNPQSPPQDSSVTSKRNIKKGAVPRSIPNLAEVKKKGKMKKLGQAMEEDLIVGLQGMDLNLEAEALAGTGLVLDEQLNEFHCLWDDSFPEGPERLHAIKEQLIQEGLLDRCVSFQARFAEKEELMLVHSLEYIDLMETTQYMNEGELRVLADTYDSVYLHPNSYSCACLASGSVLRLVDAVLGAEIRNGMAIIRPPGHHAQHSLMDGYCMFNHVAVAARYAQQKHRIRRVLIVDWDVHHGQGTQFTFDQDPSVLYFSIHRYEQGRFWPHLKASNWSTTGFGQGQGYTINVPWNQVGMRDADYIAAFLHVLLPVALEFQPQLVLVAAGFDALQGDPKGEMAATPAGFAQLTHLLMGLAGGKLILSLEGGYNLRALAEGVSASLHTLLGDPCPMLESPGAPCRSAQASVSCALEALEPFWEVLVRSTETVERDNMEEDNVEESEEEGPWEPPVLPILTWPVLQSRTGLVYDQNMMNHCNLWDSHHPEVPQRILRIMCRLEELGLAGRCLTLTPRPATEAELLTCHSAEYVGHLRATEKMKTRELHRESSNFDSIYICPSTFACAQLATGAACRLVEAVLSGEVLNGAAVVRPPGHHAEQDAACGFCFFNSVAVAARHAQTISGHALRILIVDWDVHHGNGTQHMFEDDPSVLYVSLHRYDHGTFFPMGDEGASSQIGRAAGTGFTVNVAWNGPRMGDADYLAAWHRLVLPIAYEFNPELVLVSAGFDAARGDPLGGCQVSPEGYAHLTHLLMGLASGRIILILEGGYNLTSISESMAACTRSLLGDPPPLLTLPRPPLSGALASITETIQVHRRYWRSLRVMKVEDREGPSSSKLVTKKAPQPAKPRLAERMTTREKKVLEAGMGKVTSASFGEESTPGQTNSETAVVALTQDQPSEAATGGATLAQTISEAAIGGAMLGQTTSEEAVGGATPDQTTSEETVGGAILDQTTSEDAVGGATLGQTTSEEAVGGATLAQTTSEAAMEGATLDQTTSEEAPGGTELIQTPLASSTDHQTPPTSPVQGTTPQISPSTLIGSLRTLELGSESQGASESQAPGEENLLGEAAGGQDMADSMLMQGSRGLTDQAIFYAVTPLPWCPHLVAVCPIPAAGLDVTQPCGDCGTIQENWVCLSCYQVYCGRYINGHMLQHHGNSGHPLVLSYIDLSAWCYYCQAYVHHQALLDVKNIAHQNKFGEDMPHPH

[1] = recombinant enzyme, read-out: HDAC1 inhibition (IC50)
[2] = recombinant enzyme, read-out: HDAC2 inhibition (IC50)
[3] = recombinant enzyme, read-out: HDAC6 inhibition (IC50)
[4] = comparative examples, inactive, read-out: HDAC1 IC50
[5] = comparative examples, inactive, read-out: HDAC2 IC50
[6] = comparative examples, inactive, read-out: HDAC6 IC50

Chain of HDAC1 (Q13547 whole entry): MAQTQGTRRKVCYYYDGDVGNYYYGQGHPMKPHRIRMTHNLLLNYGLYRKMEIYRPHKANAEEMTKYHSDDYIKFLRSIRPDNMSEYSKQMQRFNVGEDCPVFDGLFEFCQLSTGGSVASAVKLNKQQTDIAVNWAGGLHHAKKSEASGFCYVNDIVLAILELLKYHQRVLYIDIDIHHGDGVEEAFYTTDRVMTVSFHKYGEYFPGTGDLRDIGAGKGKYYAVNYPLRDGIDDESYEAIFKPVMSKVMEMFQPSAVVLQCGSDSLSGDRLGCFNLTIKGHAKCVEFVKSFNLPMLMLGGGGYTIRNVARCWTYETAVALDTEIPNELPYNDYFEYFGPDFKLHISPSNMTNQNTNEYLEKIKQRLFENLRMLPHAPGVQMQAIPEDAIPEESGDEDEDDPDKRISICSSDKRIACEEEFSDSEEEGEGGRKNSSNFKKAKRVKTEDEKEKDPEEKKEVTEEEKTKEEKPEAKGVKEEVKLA
T2 sequence (Q92769 whole entry): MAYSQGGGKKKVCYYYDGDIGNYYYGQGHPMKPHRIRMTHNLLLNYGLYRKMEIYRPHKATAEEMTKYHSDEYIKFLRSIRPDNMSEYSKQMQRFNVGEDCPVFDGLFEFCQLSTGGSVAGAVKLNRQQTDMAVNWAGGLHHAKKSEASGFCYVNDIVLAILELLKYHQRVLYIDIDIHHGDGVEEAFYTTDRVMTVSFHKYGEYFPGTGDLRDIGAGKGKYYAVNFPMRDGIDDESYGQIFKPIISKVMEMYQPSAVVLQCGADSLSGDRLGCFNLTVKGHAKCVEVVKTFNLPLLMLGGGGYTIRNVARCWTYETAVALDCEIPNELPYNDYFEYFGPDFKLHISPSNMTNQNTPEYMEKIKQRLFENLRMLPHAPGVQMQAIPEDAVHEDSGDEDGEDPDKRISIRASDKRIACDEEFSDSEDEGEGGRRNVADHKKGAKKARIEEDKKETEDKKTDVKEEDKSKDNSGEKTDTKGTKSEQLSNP

Row | Compound | IC50 (PDE5A) | IC50 (HDAC1; [1]) | IC50 (HDAC2; [2]) | IC50 (HDAC6; [3]) | IC50 (HDAC1; [4]) | IC50 (HDAC2; [5]) | IC50 (HDAC6; [6])
1 | CCCc1nn(C)c2c(=O)[nH]c(-c3cc(C4CCC(C(=O)NO)CC4)ccc3OCC)nc12 (centres unmarked) [Example 1-41, 4-[4-ethoxy-3-(1-methyl-7-oxo-3-propyl-6H-pyrazolo[4,3-d]pyrimidin-5-yl)phenyl]cyclohexanecarbohydroxamic acid] | 10 to 1000 nM | > 10000 nM | > 10000 nM | 1000 to 10000 nM |  |  | 
2 | CCCc1nn(C)c2c(=O)[nH]c(-c3cc(CC4CCC(CC(=O)NO)CC4)ccc3OCC)nc12 (racemic) [Example 1-43] | 10 to 1000 nM | 1000 to 10000 nM | > 10000 nM | 10 to 1000 nM |  |  | 
3 | CCCc1nn(C)c2c(=O)[nH]c(-c3cc(OCc4ccc(C(=O)NO)cc4)ccc3OCC)nc12 [Example 1-55] | 10 to 1000 nM | 1000 to 10000 nM | > 10000 nM | 10 to 1000 nM |  |  | 
4 | CCCc1nn(C)c2c(=O)[nH]c(-c3cc(N4CCC5(CC5C(=O)NO)C4)ccc3OCC)nc12 (centres unmarked) [Example 1-67] | 10 to 1000 nM | > 10000 nM | > 10000 nM | > 10000 nM |  |  | 
5 | CCCc1nn(C)c2c(=O)[nH]c(-c3cc(CN4CCC(C(=O)NO)CC4)ccc3OCC)nc12 [Example 1-36, 1-[[4-ethoxy-3-(1-methyl-7-oxo-3-propyl-6H-pyrazolo[4,3-d]pyrimidin-5-yl)phenyl]methyl]piperidine-4-carbohydroxamic acid] | 10 to 1000 nM | 1000 to 10000 nM | > 10000 nM | 1000 to 10000 nM |  |  | 
6 | CCCc1nn(C)c2c(=O)[nH]c(-c3cc(N4CCCC5(CCC(C(=O)NO)CC5)C4)ccc3OCC)nc12 (centres unmarked) [Example 1-65] | 10 to 1000 nM | 1000 to 10000 nM | > 10000 nM | > 10000 nM |  |  | 
7 | CCCc1nn(C)c2c(=O)[nH]c(-c3cc(C4CC(C(=O)NO)C4)ccc3OCC)nc12 (centres unmarked) [Example 1-84, 3-[4-ethoxy-3-(1-methyl-7-oxo-3-propyl-6H-pyrazolo[4,3-d]pyrimidin-5-yl)phenyl]cyclobutanecarbohydroxamic acid] | 10 to 1000 nM | 10 to 1000 nM | 1000 to 10000 nM | 10 to 1000 nM |  |  | 
8 | CCCc1nn(C)c2c(=O)[nH]c(-c3cc(N4CCC5(CCC(C(=O)NO)C5)CC4)ccc3OCC)nc12 (centres unmarked) [Example 1-56, 8-[4-ethoxy-3-(1-methyl-7-oxo-3-propyl-6H-pyrazolo[4,3-d]pyrimidin-5-yl)phenyl]-8-azaspiro[4.5]decane-3-carbohydroxamic acid] | 10 to 1000 nM | > 10000 nM | > 10000 nM | 1000 to 10000 nM |  |  | 
9 | CCCc1nn(C)c2c(=O)[nH]c(-c3cc(Cc4ccc(C(=O)NO)c(F)c4)ccc3OCC)nc12 [Example 1-66] | 10 to 1000 nM | 1000 to 10000 nM | > 10000 nM | 10 to 1000 nM |  |  | 
10 | CCCc1nn(C)c2c(=O)[nH]c(-c3cc(OC4CCC(C(=O)NO)CC4)ccc3OCC)nc12 (centres unmarked) [Example 1-53] | 10 to 1000 nM | 1000 to 10000 nM | 1000 to 10000 nM | 1000 to 10000 nM |  |  | 
11 | CCCc1nn(C)c2c(=O)[nH]c(-c3cc(CC4CC4C(=O)NO)ccc3OCC)nc12 (centres unmarked) [Example 1-86, 2-[[4-ethoxy-3-(1-methyl-7-oxo-3-propyl-6H-pyrazolo[4,3-d]pyrimidin-5-yl)phenyl]methyl]cyclopropanecarbohydroxamic acid] | 10 to 1000 nM | 1000 to 10000 nM | > 10000 nM | 1000 to 10000 nM |  |  | 
12 | CCCc1nn(C)c2c(=O)[nH]c(-c3cc(CC4CCN(CC(=O)NO)CC4)ccc3OCC)nc12 [Example 1-32] | < 10 nM |  | > 10000 nM | 1000 to 10000 nM |  |  | 
13 | CCCc1nn(C)c2c(=O)[nH]c(-c3cc(S(=O)(=O)N4CCC(CCC(=O)NO)CC4)ccc3OCC)nc12 [Example 1-01] | 10 to 1000 nM | > 10000 nM | > 10000 nM |  |  |  | 
14 | CCCc1nn(C)c2c(=O)[nH]c(-c3cc(NCCC(=O)NO)ccc3OCC)nc12 [Example 1-33, 3-[4-ethoxy-3-(1-methyl-7-oxo-3-propyl-6H-pyrazolo[4,3-d]pyrimidin-5-yl)anilino]propanehydroxamic acid] | 10 to 1000 nM | 1000 to 10000 nM | > 10000 nM | > 10000 nM |  |  | 
15 | CCCc1nn(C)c2c(=O)[nH]c(-c3cc(CC4CC(C(=O)NO)C4)ccc3OCC)nc12 (centres unmarked) [Example 1-62, 3-[[4-ethoxy-3-(1-methyl-7-oxo-3-propyl-6H-pyrazolo[4,3-d]pyrimidin-5 yl)phenyl]methyl]cyclobutanecarbohydroxamic acid] | 10 to 1000 nM | 10 to 1000 nM | 10 to 1000 nM | 10 to 1000 nM |  |  | 
16 | CCCc1nn(C)c2c(=O)[nH]c(-c3cc(C4=CCC(CC(=O)NO)CC4)ccc3OCC)nc12 (centres unmarked) [Example 1-42] | 10 to 1000 nM | 1000 to 10000 nM | > 10000 nM | 10 to 1000 nM |  |  | 
17 | CCCc1nn(C)c2c(=O)[nH]c(-c3cc(C4CCC(CC(=O)NO)CC4)ccc3OCC)nc12 (centres unmarked) [Example 1-51] | 10 to 1000 nM | 1000 to 10000 nM | > 10000 nM | 1000 to 10000 nM |  |  | 
18 | CCCc1nc(C)c2c(=O)[nH]c(-c3cc(Cc4ccc(/C=C/C(=O)NO)cc4)ccc3OCC)nn12 [Example 2-08] | < 10 nM | 1000 to 10000 nM | 1000 to 10000 nM | 10 to 1000 nM |  |  | 
19 | CCCc1nn(C)c2c(=O)[nH]c(-c3cc(CCC(=O)NO)ccc3OCC)nc12 [Example 1-31, 3-[4-ethoxy-3-(1-methyl-7-oxo-3-propyl-6H-pyrazolo[4,3-d]pyrimidin-5-yl)phenyl]propanehydroxamic acid] | 10 to 1000 nM | 1000 to 10000 nM | > 10000 nM | 1000 to 10000 nM |  |  | 
20 | CCCc1nn(C)c2c(=O)[nH]c(-c3cc(C(=O)NO)ccc3OCC)nc12 [Example 1-27, 4-ethoxy-3-(1-methyl-7-oxo-3-propyl-6H-pyrazolo[4,3-d]pyrimidin-5-yl)benzenecarbohydroxamic acid] | < 10 nM | 1000 to 10000 nM | > 10000 nM | > 10000 nM |  |  | 
21 | (1R,2R)-2-(1-(4,4-difluorocyclohexyl)-3a,4,5,7a-tetrahydro-4-oxo-1H-pyrazolo[3,4-d]pyrimidin-6-yl)-N-methoxy-N-methylcyclobutanecarboxamide [Comparative Example 3-01, reference compound] |  |  |  |  | > 20000 nM | > 20000 nM | > 20000 nM
22 | CCCc1nn(C)c2c(=O)[nH]c(-c3cc(Nc4ccc(C(=O)NO)cc4)ccc3OCC)nc12 [Example 1-21, 4-[4-ethoxy-3-(1-methyl-7-oxo-3-propyl-6H-pyrazolo[4,3-d]pyrimidin-5-yl)anilino]benzenecarbohydroxamic acid] | < 10 nM | 10 to 1000 nM | > 10000 nM | 10 to 1000 nM |  |  | 
23 | CCCc1nn(C)c2c(=O)[nH]c(-c3cc(N4CCC5(CCCN(c6ncc(C(=O)NO)cn6)C5)C4)ccc3OCC)nc12 (centres unmarked) [Example 1-70] | 10 to 1000 nM | 10 to 1000 nM | 1000 to 10000 nM | 1000 to 10000 nM |  |  | 
24 | CCCc1nc(C)c2c(=O)[nH]c(-c3cc(S(=O)(=O)N(C)CC(=O)N(C)OC)ccc3OCC)nn12 [Comparative Example 2-01, 2-[[4-ethoxy-3-(5-methyl-4-oxo-7-propyl-3H-imidazo[5,1-f][1,2,4]triazin-2-yl)phenyl]sulfonyl-methyl-amino]-N-methoxy-N-methyl-acetamide, reference compound] |  |  |  |  | > 20000 nM | > 20000 nM | > 20000 nM
25 | CCCc1nn(C)c2c(=O)[nH]c(-c3cc(S(=O)(=O)N4CCN(Cc5ccc(/C=C/C(=O)NO)cc5)CC4)ccc3OCC)nc12 [Example 1-02] | < 10 nM | 10 to 1000 nM | 1000 to 10000 nM |  |  |  | 
